Like-named read-outs stand apart in the source and are kept apart here.
How the values were obtained:
[1] = Plasma pharmacokinetics after a single oral RK dose, normal-weight; type: in vivo, C57BL/6J mice; details: for AUC(0-t): AUC (0–12 h); for half-life: T1/2 (elimination half-life)
[2] = type: in vivo, C57BL/6J mice; details: single oral RK 200 mg kg^−1; for half-life: T1/2 (elimination half-life)
[3] = type: in vivo, C57BL/6J mice; details: for Cmax: mean±SEM; for presence in the brain: brain of either sexes after oral RK
[4] = Plasma pharmacokinetics after a single oral RK dose, male vs female mice; type: in vivo, C57BL/6J mice
[5] = Distribution in white adipose tissue; type: in vivo, C57BL/6J mice; details: epididymal WAT; for time within which considerable accumulation in WAT was observed: male mice, oral RK 200 mg kg^−1; for increase in WAT level in obese animals compared with normal-weight: between 15 and 30 min
[6] = type: in vivo; details: in 24 h, normal-weight male mice, preliminary dosing tests
[7] = male, C57BL/6J, mouse, plasma, po, 200 mg/kg, Pl-N: plasma, normal-weight male mice, single oral RK 200 mg kg^−1
[8] = male, C57BL/6J, mouse, plasma, po, 200 mg/kg, Pl-O: plasma, obese male mice, single oral RK 200 mg kg^−1
[9] = male, C57BL/6J, mouse, plasma, po, 200 mg/kg, Tmax, Pl-N: plasma, normal-weight male mice, single oral RK 200 mg kg^−1
[10] = Br-N: brain, normal-weight male mice
[11] = male, C57BL/6J, mouse, brain, po, 200 mg/kg, Br-N: brain, normal-weight male mice
[12] = male, C57BL/6J, mouse, brain, po, 200 mg/kg, Tmax, Br-N: brain, normal-weight male mice
[13] = Br-F: brain, female LFD mice, single oral RK 200 mg kg^−1
[14] = Br-M: brain, male LFD mice, single oral RK 200 mg kg^−1
[15] = female, C57BL/6J, mouse, brain, po, 200 mg/kg
[16] = male, C57BL/6J, mouse, brain, po, 200 mg/kg
[17] = female, C57BL/6J, mouse, plasma, po, 200 mg/kg
[18] = male, C57BL/6J, mouse, plasma, po, 200 mg/kg
[19] = male, C57BL/6J, mouse, brain, po, 200 mg/kg, Br-O: brain, obese male mice
[20] = Pl-N: plasma, normal-weight male mice, single oral RK 200 mg kg^−1
[21] = Pl-O: plasma, obese male mice, single oral RK 200 mg kg^−1
[22] = Pl-F: plasma, female LFD mice, single oral RK 200 mg kg^−1
[23] = Pl-M: plasma, male LFD mice, single oral RK 200 mg kg^−1

SMILES	AUC(0-t) [1, 7]	half-life [1, 7]	half-life [1, 8]	Tmax [1, 9]	Cmax [2, 10]	Cmax ([2]; Br-O: brain, obese male mice)	half-life [2, 11]	Tmax [2, 12]	Cmax [3, 13]	Cmax [3, 14]	Tmax [3, 15]	half-life [3, 15]	Tmax [3, 16]	half-life [3, 16]	Cmax [4, 17]	Tmax [4, 17]	AUC(0-t) [4, 18]	Tmax [4, 18]	half-life [4, 18]	time within which considerable accumulation in WAT was observed [5]	also measured
OCCc1ccc(O)c(O)c1 [3,4-DHPE, 2-(3,4-dihydroxyphenyl)ethanol]	0.08 ± 0.006 µM·h	48.9 ± 6.9 min	51.7 ± 4.36 min	20 min	0.031 ± 0.003 nmol/g	0.025 ± 0.002 nmol/g	35.5 ± 3.94 min	20 min	0.020 ± 0.006 nmol/g	0.021 ± 0.003 nmol/g	15 min	20.3 ± 1.41 min	15 min	21 ± 0.16 min	0.024 ± 0.002 µM	15 min	0.057 ± 0.006 µM·h	20 min	41.8 ± 1.25 min		half-life [4, 17]: 63.6 ± 6.84 min
O=C(O)CCc1cccc(O)c1 [3-(3-hydroxyphenyl)propionic acid]																					presence in the brain [3]: not found
OCCc1ccc(O)cc1 [4-HPE, 2-(4-hydroxyphenyl)ethanol]	20.7 ± 2.92 µM·h	73 ± 4.7 min	56.3 ± 8.8 min	20 min	6.14 ± 0.49 nmol/g	7.92 ± 1.60 nmol/g	31.5 ± 4.38 min	25 min	1.28 ± 0.08 nmol/g	1.03 ± 0.14 nmol/g	20 min		15 min	64.7 ± 7.78 min	43.6 ± 2.9 µM	40 min	108 ± 10.9 µM·h	50 min	104 ± 2.1 min	≤ 15 min	AUC(0-t) [1, 8]: 28.7 ± 3.65 µM·h; half-life [2, 19]: 38.8 ± 2.56 min; AUC(0-t) [4, 17]: 98.7 ± 7.38 µM·h
CC(=O)C=Cc1ccc(O)c(O)c1 [DHPhLiAce, 3,4-dihydroxybenzylideneacetone]	1.04 ± 0.16 µM·h	41.6 ± 3 min	48 ± 2.1 min	30 min	0.23 ± 0.012 nmol/g		36.2 ± 1.6 min	30 min	0.112 ± 0.042 nmol/g	0.067 ± 0.011 nmol/g	25 min	35.8 ± 2.29 min	20 min	33.4 ± 0.73 min		15 min	0.465 ± 0.046 µM·h	40 min	41.4 ± 2.91 min	≤ 15 min	AUC(0-t) [1, 8]: 1.38 ± 0.04 µM·h; half-life [2, 19]: 37.2 ± 0.22 min; half-life [4, 17]: 30 ± 4.24 min
CC(=O)CCc1ccc(O)cc1 [RK, 4-(4-hydroxyphenyl)-2-butanone]	387 ± 25.6 µM·h	73.3 ± 1.2 min	94.7 ± 7.8 min	15 min	32.7 ± 4.34 nmol/g	46.7 ± 6.2 nmol/g	39.5 ± 1.9 min	20 min	37.4 ± 8.73 nmol/g	28.9 ± 2.42 nmol/g	15 min	28.3 ± 1.65 min	15 min	25.7 ± 2 min	281 ± 17.1 µM	15 min	358 ± 34 µM·h	15 min	78.4 ± 3.55 min	≤ 15 min	maximal circulating concentration ([1]; plasma, normal-weight mice): 236 nM; maximal circulating concentration ([1]; plasma, obese mice): 318 nM; twelve-hour plasma accumulation in obese animals as % of normal-weight ones ([1]; plasma, obese vs normal-weight): 152.2–197.6%; clearance from the bloodstream [6]: > 99%; increase in WAT level in obese animals compared with normal-weight [5]: 30–90%; higher residual content in WAT of obese mice ([5]; between 30 min and 2 h, obese vs normal-weight): > 100%; half-life [2, 19]: 41.5 ± 4 min; Tmax ([4]; both, C57BL/6J, mouse, plasma, po, 200 mg/kg): ~15 min; AUC(0-t) [4, 17]: 299 ± 20.2 µM·h; time of absorption and tissue accumulation ([4]; oral RK 200 mg kg^−1, this study): < 30 min
COc1ccc(CCC(C)=O)cc1 [RK-Me, 4-(4-methoxy-phenyl)-2-butanone]	0.039 ± 0.008 µM·h	31 ± 5.6 min	41.7 ± 1.2 min	20 min											0.086 ± 0.022 µM	25 min	0.05 ± 0.005 µM·h	20 min	26.7 ± 2.81 min	≤ 15 min	AUC(0-t) [1, 8]: 0.047 ± 0.007 µM·h; presence in the brain [3]: not found; AUC(0-t) [4, 17]: 0.069 ± 0.01 µM·h; half-life [4, 17]: 31.4 ± 1.84 min
CC(O)CCc1ccc(O)cc1 (stereo not drawn) [ROH, raspberry alcohol]					55.1 ± 8.12 nmol/g	60.3 ± 6.6 nmol/g			21.6 ± 4.72 nmol/g	21.0 ± 2.68 nmol/g										≤ 15 min	AUC (0–12 h) [1, 20]: 208 ± 22.0 nmol/mL/min; T1/2 (elimination half-life) [1, 20]: 66.1 ± 1.7 min; Tmax [1, 20]: 25.0 ± 5.0 min; T1/2 (elimination half-life) [1, 21]: 70.0 ± 1.5 min; Tmax [1, 21]: 50.0 ± 10.0 min; increase in WAT level in obese animals compared with normal-weight [5]: 30–90%; T1/2 (elimination half-life) [2, 10]: 33.7 ± 2.2 min; Tmax [2, 10]: 20.0 ± 5.0 min; Tmax ([2]; Br-O: brain, obese male mice): 40.0 ± 10.0 min; T1/2 (elimination half-life) [3, 14]: 32.0 ± 0.77 min; Tmax [3, 14]: 20.0 ± 5.0 min; AUC (0–12 h) [4, 22]: 158 ± 17.1 nmol/mL/min; Tmax [4, 22]: 25.0 ± 4.99 min; Cmax ([4]; Pl-F: plasma, female LFD mice, single oral RK 200 mg kg^−1, mean±SEM): 130 ± 12.7 µM; AUC (0–12 h) [4, 23]: 177 ± 11.8 nmol/mL/min; T1/2 (elimination half-life) [4, 23]: 63.2 ± 2.61 min; Tmax [4, 23]: 25.0 ± 4.99 min
COc1cc(CCC(C)=O)ccc1O [VLAce, vanillylacetone]	61.2 ± 4.7 µM·h	40.9 ± 4.8 min	68.8 ± 17.3 min	25 min	2.07 ± 0.24 nmol/g		44.4 ± 2.18 min	40 min	1.49 ± 0.30 nmol/g	1.51 ± 0.15 nmol/g		89.2 ± 10 min	15 min	84.1 ± 3.55 min	9.94 ± 2.4 µM	15 min	31 ± 3.65 µM·h	25 min	46.4 ± 2.1 min	≤ 15 min	
CC(=O)C=Cc1ccccc1 [benzylideneacetone]																					presence in the brain [3]: not found
COc1cc(/C=C/C(=O)O)ccc1O [ferulic acid]																					presence in the brain [3]: not found
